According to publication PMC6105845, “Nucleotide Prodrug Containing a Nonproteinogenic Amino Acid To Improve Oral Delivery of a Hepatitis C Virus Treatment” (Antimicrobial Agents and Chemotherapy, 2018):
In brackets after ≈: the same amount, converted by molar mass.

How the values were obtained:
[1] = system: HCV GT1a replicon; test: HCV GT1a replicon, stably transfected Huh-Lunet cells; assay type: cell-based, hepatitis C virus; conditions: for EC50: Hepatitis C virus, 72 h, stably transfected Huh-Lunet cells, 3 days
Procedure: (§1) Primary hepatocytes from humans, hamsters, dogs, and monkeys were purchased from BioreclamationIVT in 12-well plates seeded at confluence (0.88 × 10^6 cells/well). Huh-Lunet cells were obtained from ReBlikon GmbH (Mainz, Germany) ([19]). Huh-1C was derived from a GT1a replicon clone in which HCV replication was cured. All Huh-Lunet- and Huh-1C-based replicon cell lines were cultured in Dulbecco's modified Eagles' medium (DMEM) with GlutaMAX (Invitrogen, Carlsbad, CA) supplemented with 10% fetal bovine serum (FBS; HyClone, Logan, UT) and 100 U/ml penicillin (Invitrogen). Replicon cell lines containing genotype 1a (H77) and 2a (JFH1) were created as previously reported ([20][–][22]). Caco-2 cells were maintained in DMEM with sodium pyruvate, GlutaMAX supplemented with 1% penicillin-streptomycin, 1% nonessential amino acids, and 10% FBS in an incubator set at 37°C, 90% humidity, and 5% CO2.
(§2) GT1a, GT1b, and GT2a are authentic subgenomic replicons of the indicated strain. Creation of these HCV replicons was reported previously ([7]).
(§3) The EC50s, defined as the concentration at which there was a measured 50% decrease in HCV replicon level, were determined in replicon assay as previously described ([24]). Briefly, replicon cells were seeded into 96-well plates. Compounds were serially diluted in DMSO at 200× final concentrations and then added to the assay plate. Luciferase expression was quantified after 3 days of incubation using a commercial luciferase assay (Promega, Madison, WI). Data were analyzed using GraphPad Prism 6.0 (La Jolla, CA).
(§4) X represents log of compound concentration and Y represents replicon replication as the percentage of DMSO control. EC50s were calculated as an average from at least three independent experiments.

[2] = system: HCV GT1b replicon; test: HCV GT1b replicon, stably transfected Huh-Lunet cells; assay type: cell-based, hepatitis C virus; conditions: for EC50: Hepatitis C virus, 72 h, stably transfected Huh-Lunet cells, 3 days
Procedure: as §1, §2, §3, §4

[3] = system: HCV GT2a replicon; test: HCV GT2a replicon, stably transfected Huh-Lunet cells; assay type: cell-based, hepatitis C virus; conditions: for EC50: Hepatitis C virus, 72 h, stably transfected Huh-Lunet cells, 3 days
Procedure: as §1, §2, §3, §4

[4] = Thermodynamic solubility (shaking flask, simulated intestinal fluid); assay type: physicochemical; conditions: for solubility thermodynamic: fessif, thermodynamic from solid, crystalline free base GS-6620, amorphous GS2
Procedure: The samples were incubated at 37°C for 1 h, followed by centrifugation at 2,800 relative centrifugal force (RCF) for 30 min at room temperature. Thermodynamic solubility was determined with the crystalline-free base of GS-6620 or amorphous GS2 using the shaking flask method. The concentrations of the compounds in supernatants were determined by HPLC.

[5] = Caco-2 bidirectional permeability; assay type: in vitro ADME; conditions: human; for Papp A→B / Papp B→A / efflux ratio: at thermodynamic solubility limit in fed simulated intestinal fluid; for efflux ratio: read-out: Efflux ratio B→A/A→B
Procedure: Caco-2 cells between passage 43 and 71 were grown to confluence for ≥21 days on 12- or 24-well polyethylene terephthalate plates (BD Biosciences). The bidirectional permeability of compounds was tested as described previously ([8]). In brief, the donor well contained Hanks' balanced salt solution (HBSS), 10 mM HEPES (pH 6.5), and 15 mM glucose. The receiver well contained HBSS (pH 7.4) and 1% bovine serum albumin (BSA). The cells were dosed on the apical (A) or basolateral (B) side to determine forward (A to B) and reverse (B to A) permeability. Media from the donor and receiver wells were analyzed by LC-MS/MS.

[6] = Metabolic stability in intestinal S9 fraction, human; assay type: in vitro ADME; conditions: for half-life at 2 μM: intestinal S9 fraction
Procedure: (§5) Blood plasma and S9 stability was studied as described previously ([8]). In brief, the compounds were incubated at 2 μM in hamster, rat, dog, monkey, or human plasma samples for up to 4 h at 37°C. For S9 stability, the compounds were incubated at 2 μM in hamster, rat, dog, monkey, or human intestinal and hepatic S9 fractions for up to 90 min at 37°C in the presence of NADPH and uridine 5′-diphosphoglucuronic acid trisodium salt (UDPGA) (Sigma-Adrich). The samples were analyzed by liquid chromatography coupled to triple-quadrupole mass spectrometry (LC-MS/MS).
(§6) The data (analyte-to-internal standard peak area ratio) were plotted on a semilog scale and fitted using an exponential fit. The half-life (t1/2) was determined assuming first-order kinetics.

[7] = Metabolic stability in hepatic S9 fraction, hamster; assay type: in vitro ADME; conditions: 2 μM
Procedure: as §5, §6

[8] = Metabolic stability in hepatic S9 fraction, rat; assay type: in vitro ADME; conditions: 2 μM
Procedure: as §5, §6

[9] = Metabolic stability in hepatic S9 fraction, dog; assay type: in vitro ADME; conditions: 2 μM
Procedure: as §5, §6

[10] = Metabolic stability in hepatic S9 fraction, human; assay type: in vitro ADME; conditions: 2 μM
Procedure: as §5, §6

[11] = in vitro; assay type: in vitro ADME; conditions: 37°C, read-out: Plasma stability, half-life
Procedure: as §5, §6

[12] = biological target: T1, CES2 (Homo sapiens, UniProt O00748); test: Ester cleavage by CES2; assay type: biochemical; conditions: GS-6620-containing diastereomeric mixture was used
T1 construct: purchased R&D Systems (Minneapolis, MN)
T1 sequence (O00748 27-559): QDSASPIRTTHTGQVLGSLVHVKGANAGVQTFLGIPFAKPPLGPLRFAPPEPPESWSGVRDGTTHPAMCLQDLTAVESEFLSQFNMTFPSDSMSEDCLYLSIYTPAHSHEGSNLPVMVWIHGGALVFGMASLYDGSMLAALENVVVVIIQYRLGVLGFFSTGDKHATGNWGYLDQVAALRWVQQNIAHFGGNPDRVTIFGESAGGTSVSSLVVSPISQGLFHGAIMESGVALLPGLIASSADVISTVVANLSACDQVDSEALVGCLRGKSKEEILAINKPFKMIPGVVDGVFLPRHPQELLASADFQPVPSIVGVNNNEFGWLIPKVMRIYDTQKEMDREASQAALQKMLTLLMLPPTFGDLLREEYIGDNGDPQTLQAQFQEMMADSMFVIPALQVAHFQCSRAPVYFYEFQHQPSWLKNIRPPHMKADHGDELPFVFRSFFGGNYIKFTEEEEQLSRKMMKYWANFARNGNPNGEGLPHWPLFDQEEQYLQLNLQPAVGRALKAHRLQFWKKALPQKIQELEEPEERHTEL
Procedure: Biochemical assays studying prodrug cleavage have been described previously ([8]). In brief, the cleavages of GS2 by CATA, CES1, CES2, and HINT1 were assessed in vitro. The reaction substrates and products were monitored over time by high-performance liquid chromatography (HPLC).

[13] = fed-state simulated intestinal fluid

Row | Compound | EC50 [1] | EC50 [2] | EC50 ([3]; GT2a) | solubility thermodynamic [4, 13] | Papp A→B [5] | Papp B→A [5] | efflux ratio [5] | half-life at 2 μM [6] | Metabolic stability in hepatic S9 fraction, predicted hepatic extraction [7] | Metabolic stability in hepatic S9 fraction, predicted hepatic extraction [8] | Metabolic stability in hepatic S9 fraction, predicted hepatic extraction [9] | Metabolic stability in hepatic S9 fraction, predicted hepatic extraction [10] | half-life at 2 μM ([11]; dog plasma) | half-life at 2 μM ([11]; hamster plasma) | half-life at 2 μM ([11]; human plasma) | half-life at 2 μM ([11]; monkey (cynomolgus) plasma) | half-life at 2 μM ([11]; rat plasma) | Amidate ester cleavage, specific activity [12] | other results
1 | CC(C)OC(=O)C(C)(C)N[P@](=O)(OC[C@H]1O[C@@](C#N)(c2ccc3c(N)ncnn23)[C@](C)(O)[C@@H]1O)Oc1ccccc1 [GS2] | 0.38 ± 0.15 µM | 2.2 µM | 25 µM | 430 µM (≈ 253 µg/mL) | 26 nm/s | 67 nm/s | 2.5 | 9.5 h | 93% | 86% | 42% | 87% | > 10 h | > 10 h | > 10 h | > 10 h | 0.0833 h | Stable | Fold (GS2/GS-6620) ([1]; EC50 ratio, Huh-Lunet): 3.5; Fold (GS2/GS-6620) ([2]; EC50 ratio, Huh-Lunet): 7.2; Fold (GS2/GS-6620) ([3]; EC50 ratio, GT2a, Huh-Lunet): 50; difference in solubility between fed and fasted simulated intestinal fluid [4]: less than 30%; thermodynamic solubility higher than GS-6620 [4, 13]: > 30 fold; Papp A→B at 10 μM ([5]; tested at 10 μM): 4 nm/s; Papp B→A at 10 μM ([5]; tested at 10 μM): 93 nm/s; stability in human intestinal S9 greater than GS-6620 [6]: 35 fold
2 | CC(C)OC(=O)[C@H](C)N[P@](=O)(OC[C@H]1O[C@@](C#N)(c2ccc3c(N)ncnn23)[C@](C)(O)[C@@H]1OC(=O)C(C)C)Oc1ccccc1 [GS-6620, reference compound] | 0.11 ± 0.05 µM | 0.3 ± 0.14 µM | 0.5 ± 0.16 µM | 7.8 µM (≈ 5.03 µg/mL) | 18 nm/s | 110 nm/s | 5.8 | 0.283 h | 97% | 97% | 73% | 93% | 7.17 h | 2 h | 6.17 h | 1.33 h | < 0.0333 h | Stable | difference in activity across the 2a replicons ([3]; Huh-Lunet vs Huh-1C 2a replicons): ≤ 19 fold; 3′-Ester cleavage, specific activity [12]: 60.1 pmol/min/µg
